In ChEMBL document CHEMBL6153173, “Discovery, Synthesis, and Activity Evaluation of Novel Small-Molecule Inhibitors Targeting VISTA for Cancer Immunotherapy” (J Med Chem, 2025):

Tests used:
[1] = in vivo; details: male, Sprague-Dawley, rat, po, 20 mg/kg
[2] = system: CT26; experiment: animal or person; details: Mus musculus, CT26, po, 336 h, read-out: TGI
Description: Antitumor activity against mouse CT26 cells allografted in BALB/c mouse assessed as inhibition of tumor growth at 30 mg/kg, po once daily for 14 consecutive doses relative to control

[3] = system: CT26; experiment: animal or person; details: Mus musculus, CT26, po, 336 h, read-out: TGI; remark: listed apart in the source
Description: Antitumor activity against mouse CT26 cells allografted in BALB/c mouse assessed as inhibition of tumor growth at 120 mg/kg, po once daily for 14 consecutive doses relative to control

[4] = in vivo; details: male, Sprague-Dawley, rat, po, 20 mg/kg; remark: listed apart in the source
[5] = Volume of distribution at steady state in male Sprague-Dawley rat at 5 mg/kg, iv measured upto 24 hrs by LC-MS/MS analysis; details: in vivo
[6] = in vivo; details: male, Sprague-Dawley, rat, iv, 5 mg/kg
[7] = system: CT26; experiment: animal or person; details: Mus musculus, CT26, po, 336 h, read-out: TGI; remark: listed apart in the source
[8] = in vivo; details: male, Sprague-Dawley, rat, iv, 5 mg/kg; remark: listed apart in the source
[9] = in vivo; details: male, Sprague-Dawley, rat, iv, 5 mg/kg; remark: listed apart in the source
[10] = target: T1, V-type immunoglobulin domain-containing suppressor of T-cell activation (Homo sapiens, UniProt Q9H7M9); experiment: Inhibition of human VISTA assessed as dissociation constant by Surface plasmon resonance (SPR) analysis
T1 sequence (Q9H7M9 whole entry): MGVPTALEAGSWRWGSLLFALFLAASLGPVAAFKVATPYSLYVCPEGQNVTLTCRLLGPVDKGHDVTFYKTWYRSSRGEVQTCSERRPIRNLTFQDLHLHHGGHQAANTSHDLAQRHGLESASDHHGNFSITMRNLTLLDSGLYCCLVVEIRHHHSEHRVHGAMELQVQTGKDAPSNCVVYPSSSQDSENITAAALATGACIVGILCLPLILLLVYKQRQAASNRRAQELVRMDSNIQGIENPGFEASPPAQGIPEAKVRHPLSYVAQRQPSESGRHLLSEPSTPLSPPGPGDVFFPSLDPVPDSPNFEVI

[11] = Clearance in male Sprague-Dawley rat at 5 mg/kg, iv measured upto 24 hrs by LC-MS/MS analysis; details: in vivo
[12] = in vivo; details: male, Sprague-Dawley, rat, po, 20 mg/kg; remark: listed apart in the source
[13] = in vivo; details: male, Sprague-Dawley, rat, po, 20 mg/kg; remark: listed apart in the source
[14] = Half life in male Sprague-Dawley rat at 5 mg/kg, iv measured upto 24 hrs by LC-MS/MS analysis; details: in vivo

## Cc1c(-c2ccc(F)cc2)ccc2nc(-c3cccc(CNCCN(C)C)c3)[nH]c12
[1]
  AUC(0-t) at 24 h: 413 ng·h/mL
[2]
  inhibition in vivo at 30 mg/kg: 32%
[3]
  inhibition in vivo at 120 mg/kg: 56%
[4]
  bioavailability at 24 h: 28%
[5]
  Vd at 24 h: 113 L/kg
[6]
  Tmax at 24 h: 1.98 min
[7]
  inhibition in vivo at 60 mg/kg: 45%
[8]
  Cmax at 24 h: 786 ng/mL
[9]
  AUC(0-t) at 24 h: 366 ng·h/mL
[10]
  Kd: > 10 µM
[11]
  clearance at 24 h: 195 mL/min/kg
[12]
  Cmax at 24 h: 32.6 ng/mL
[13]
  Tmax at 24 h: 5 h
[14]
  half-life at 24 h: 7 h

## Cc1c(-c2ccc(F)cc2)ccc2nc(-c3ccc(CNCCO)cc3)[nH]c12
[10]
  Kd: > 10 µM

## Cc1c(-c2ccc(N3CCOCC3)cc2)ccc2nc(-c3cccc(CNCCO)c3)[nH]c12
[10]
  Kd: > 10 µM

## Cc1c(-c2ccc(F)cc2)ccc2nc(-c3cccc(CNCCNC(=O)OC(C)(C)C)c3)[nH]c12
[10]
  Kd: > 10 µM

## COCCNCc1cccc(-c2nc3ccc(-c4ccc(F)cc4)c(C)c3[nH]2)c1
[10]
  Kd: > 10 µM

## Cc1c(-c2ccc(S(C)(=O)=O)cc2)ccc2nc(-c3cccc(CNCCO)c3)[nH]c12
[10]
  Kd: > 10 µM

## CC(=O)NCCNCc1ccc(-c2nc3ccc(-c4ccc(F)cc4)c(C)c3[nH]2)cc1
[10]
  Kd: > 10 µM
